Results taken from ChEMBL document CHEMBL5120793, “A Natural Plant Ingredient, Menthone, Regulates T Cell Subtypes and Lowers Pro-inflammatory Cytokines of Rheumatoid Arthritis” (J Nat Prod, 2022).
Calls of active or inactive are those of the source.

What was measured:
[1] = tested on: Mus musculus; assay: Antiarthritic activity against collagen-II induced rheumatoid arthritis DBA-1 mouse spleen CD4+ T cells assessed as increase in Foxp3 mRNA level at 100 mg/kg administered for 14 days on day 60 to day 74 post-immunization by RT-qPCR assay; type: functional, organism-based; details: T-cell, time 14.0 day
[2] = tested on: Mus musculus; assay: Antiarthritic activity against collagen-II induced rheumatoid arthritis DBA-1 mouse blood CD4+ T cells assessed as increase in GATA3 mRNA level at 100 mg/kg administered for 14 days on day 60 to day 74 post-immunization by RT-qPCR assay; type: functional, organism-based; details: T-cell, time 14.0 day
[3] = tested on: Mus musculus; assay: Antiarthritic activity against collagen-II induced rheumatoid arthritis DBA-1 mouse spleen CD4+ T cells assessed as increase in GATA3 mRNA level at 100 mg/kg administered for 14 days on day 60 to day 74 post-immunization by RT-qPCR assay; type: functional, organism-based; details: T-cell, time 14.0 day
[4] = tested on: Mus musculus; assay: Antiarthritic activity against collagen-II induced rheumatoid arthritis DBA-1 mouse model assessed as reduction in blood IL-1beta mRNA level at 100 mg/kg administered for 14 days on day 60 to day 74 post-immunization by RT-qPCR assay; type: functional, organism-based; details: time 14.0 day
[5] = tested on: Mus musculus; assay: Antiarthritic activity against collagen-II induced rheumatoid arthritis DBA-1 mouse blood CD4+ T cells assessed as reduction in RORgammaT mRNA level at 100 mg/kg administered for 14 days on day 60 to day 74 post-immunization by RT-qPCR assay; type: functional, organism-based; details: T-cell, time 14.0 day
[6] = tested on: CD4+ve Th; assay: Antiinflammatory activity against PMA induced DBA-1 mouse spleen CD4+ve Th cells assessed as reduction in TNF-alpha mRNA level at 50 to 100 uM incubated for 24 hrs by RT-qPCR assay; type: functional, cell-based; details: dose 50-100 µM
[7] = tested on: Mus musculus; assay: Antiarthritic activity against collagen-II induced rheumatoid arthritis DBA-1 mouse model assessed as reduction in serum IL-1beta level at 100 mg/kg administered for 14 days on day 60 to day 74 post-immunization by ELISA; type: functional, organism-based; details: time 14.0 day
[8] = tested on: Mus musculus; assay: Antiarthritic activity against collagen-II induced rheumatoid arthritis DBA-1 mouse spleen CD4+ T cells assessed as reduction in RORgammaT mRNA level at 100 mg/kg administered for 14 days on day 60 to day 74 post-immunization by RT-qPCR assay; type: functional, organism-based; details: T-cell, time 14.0 day
[9] = tested on: Mus musculus; assay: Antiarthritic activity against collagen-II induced rheumatoid arthritis DBA-1 mouse blood CD4+ T cells assessed as reduction in Th17 cells differentiation at 100 mg/kg administered for 14 days on day 60 to day 74 post-immunization by flow cytometry analysis; type: functional, organism-based; details: T-cell, time 14.0 day
[10] = tested on: Mus musculus; assay: Antiarthritic activity against collagen-II induced rheumatoid arthritis DBA-1 mouse model assessed as reduction in synovial hyperplasia at 100 mg/kg administered for 14 days on day 60 to day 74 post-immunization; type: functional, organism-based; details: time 14.0 day
[11] = tested on: Mus musculus; assay: Antiarthritic activity against collagen-II induced rheumatoid arthritis DBA-1 mouse model assessed as reduction in blood IL-6 mRNA level at 100 mg/kg administered for 14 days on day 60 to day 74 post-immunization by RT-qPCR assay; type: functional, organism-based; details: time 14.0 day
[12] = tested on: Mus musculus; assay: Antiarthritic activity against collagen-II induced rheumatoid arthritis DBA-1 mouse model assessed as reduction in IL-17 protein level at 100 mg/kg administered for 14 days on day 60 to day 74 post-immunization by immunohistochemistry analysis; type: functional, organism-based; details: time 14.0 day
[13] = tested on: Mus musculus; assay: Antiarthritic activity against collagen-II induced rheumatoid arthritis DBA-1 mouse model assessed as reduction in serum TNF-alpha level at 100 mg/kg administered for 14 days on day 60 to day 74 post-immunization by ELISA; type: functional, organism-based; details: time 14.0 day
[14] = tested on: Mus musculus; assay: Antiarthritic activity against collagen-II induced rheumatoid arthritis DBA-1 mouse blood CD4+ T cells assessed as reduction in T-bet mRNA level at 100 mg/kg administered for 14 days on day 60 to day 74 post-immunization by RT-qPCR assay; type: functional, organism-based; details: T-cell, time 14.0 day
[15] = tested on: Mus musculus; assay: Antiarthritic activity against collagen-II induced rheumatoid arthritis DBA-1 mouse model assessed as reduction in TNF-alpha protein level at 100 mg/kg administered for 14 days on day 60 to day 74 post-immunization by immunohistochemistry analysis; type: functional, organism-based; details: time 14.0 day
[16] = tested on: Mus musculus; assay: Antiarthritic activity against collagen-II induced rheumatoid arthritis DBA-1 mouse model assessed as reduction in clinical score at 100 mg/kg administered for 14 days on day 60 to day 74 post-immunization; type: functional, organism-based; details: time 14.0 day
[17] = tested on: CD4+ve Th; assay: Antiinflammatory activity against PMA induced DBA-1 mouse spleen CD4+ve Th cells assessed as reduction in IL-6 mRNA level at 50 to 100 uM incubated for 24 hrs by RT-qPCR assay; type: functional, cell-based; details: dose 50-100 µM
[18] = tested on: Mus musculus; assay: Antiarthritic activity against collagen-II induced rheumatoid arthritis DBA-1 mouse model assessed as reduction in blood TNF-alpha mRNA level at 100 mg/kg administered for 14 days on day 60 to day 74 post-immunization by RT-qPCR assay; type: functional, organism-based; details: time 14.0 day
[19] = tested on: Mus musculus; assay: Antiarthritic activity against collagen-II induced rheumatoid arthritis DBA-1 mouse blood CD4+ T cells assessed as reduction in Th1 cells differentiation at 100 mg/kg administered for 14 days on day 60 to day 74 post-immunization by flow cytometry analysis; type: functional, organism-based; details: T-cell, time 14.0 day
[20] = tested on: Mus musculus; assay: Antiarthritic activity against collagen-II induced rheumatoid arthritis DBA-1 mouse model assessed as reduction in IL-1beta protein level at 100 mg/kg administered for 14 days on day 60 to day 74 post-immunization by immunohistochemistry analysis; type: functional, organism-based; details: time 14.0 day
[21] = tested on: Mus musculus; assay: Antiarthritic activity against collagen-II induced rheumatoid arthritis DBA-1 mouse model assessed as reduction in serum IL-6 level at 100 mg/kg administered for 14 days on day 60 to day 74 post-immunization by ELISA; type: functional, organism-based; details: time 14.0 day
[22] = tested on: Mus musculus; assay: Antiarthritic activity against collagen-II induced rheumatoid arthritis DBA-1 mouse spleen CD4+ T cells assessed as reduction in T-bet mRNA level at 100 mg/kg administered for 14 days on day 60 to day 74 post-immunization by RT-qPCR assay; type: functional, organism-based; details: T-cell, time 14.0 day
[23] = tested on: Mus musculus; assay: Antiarthritic activity against collagen-II induced rheumatoid arthritis DBA-1 mouse spleen CD4+ T cells assessed as reduction in Th1 cells differentiation at 100 mg/kg administered for 14 days on day 60 to day 74 post-immunization by flow cytometry analysis; type: functional, organism-based; details: T-cell, time 14.0 day
[24] = tested on: Mus musculus; assay: Antiarthritic activity against collagen-II induced rheumatoid arthritis DBA-1 mouse model assessed as reduction in damage of articular cartilage at 100 mg/kg administered for 14 days on day 60 to day 74 post-immunization; type: functional, organism-based; details: time 14.0 day
[25] = tested on: CD4+ve Th; assay: Antiinflammatory activity against PMA induced DBA-1 mouse spleen CD4+ve Th cells assessed as reduction in IL-1beta mRNA level at 50 to 100 uM incubated for 24 hrs by RT-qPCR assay; type: functional, cell-based; details: dose 50-100 µM
[26] = tested on: Mus musculus; assay: Antiarthritic activity against collagen-II induced rheumatoid arthritis DBA-1 mouse blood CD4+ T cells assessed as increase in Foxp3 mRNA level at 100 mg/kg administered for 14 days on day 60 to day 74 post-immunization by RT-qPCR assay; type: functional, organism-based; details: T-cell, time 14.0 day
[27] = tested on: Mus musculus; assay: Antiarthritic activity against collagen-II induced rheumatoid arthritis DBA-1 mouse spleen CD4+ T cells assessed as reduction in Th17 cells differentiation at 100 mg/kg administered for 14 days on day 60 to day 74 post-immunization by flow cytometry analysis; type: functional, organism-based; details: T-cell, time 14.0 day

Measured: Activity

CC(C)[C@@H]1CC[C@@H](C)CC1=O
active: all assays above
